Molecules are shown by their SMILES.

Format in all cases: cell-based
Assay [1] has as its system androgen-independent human prostate cancer (DU-145) cell lines. Put plainly: MTS cell viability assay. The protocol:
(§1) All the 14 hybrid compounds synthesized via Scheme 1, along with the intermediates and starting compounds, were tested in vitro for their cytotoxicity against a panel of 6 human cancer cell lines. This panel involved human leukemia carcinoma (CCRF-CEM), human ovarian adenocarcinoma (SKOV-3), human breast tumor (MDA-MB-231), human prostate cancer (PC-3), androgen-independent human prostate cancer (DU-145), and human renal carcinoma (iSLK) cell lines. The compounds were tested at a concentration of 25 μM for incubation periods of 24 and 72 h. Standard anticancer drug doxorubicin at a concentration of 5 μM and DMSO were used as controls in all the cell assays. The antiproliferative profile of benzopyran-4-one-isoxazole conjugates is shown in Figure 2 (cf. Supplementary Materials for the data obtained for intermediates and starting materials Figure S28.1–S28.6, page no. 71–76).
(§2) Cell viability assays were performed using the MTS protocol. The in vitro cytotoxicity of the conjugates was evaluated using six human cancer cell lines, one human normal kidney cell line, and one mammalian normal kidney cell line, which included human leukemia carcinoma cell lines (CCRF-CEM), human ovarian adenocarcinoma cell lines (SKOV-3), human breast tumor cell lines (MDA-MB-231), human prostate cancer cell lines (PC-3), androgen-independent human prostate cancer cell lines (DU-145), human renal carcinoma (iSLK), human embryonic kidney cell lines (HEK-293), and normal mammalian kidney cell line (LLCPK) to determine the toxicity of the synthesized conjugates. CCRF-CEM cells were seeded at 50,000 cells in 0.1 mL per well in 96-well plates, and in the case of SKOV-3, MDA-MB-231, PC-3, DU-145, HEK-293, and LLCPK cell lines, the cells were seeded at 5000 cells in 0.1 mL per well in 96-well plates. The CCRF-CEM cells were seeded in RPMI-1640 media containing 2mM L-glutamine, 1.5 g/L sodium bicarbonate, supplemented with fetal bovine serum (FBS) 10% media, SKOV-3, MDA-MB-231, and LLCPK cells were seeded in MEME media with Earle’s salts and sodium bicarbonate, without L-glutamine, supplemented with fetal bovine serum (FBS) 10%, PC-3 cells were seeded in DMEM:F-12 containing 1:1 mixture with L-glutamine with HEPES, supplemented with fetal bovine serum (FBS) 10%, and DU-145 and HEK-293 cells were seeded in DMEM containing 4500 mg/L glucose, L-glutamine, and sodium bicarbonate, without sodium pyruvate, supplemented with FBS (10%), 24 h prior to the experiment. The compounds at a final concentration of 25 µM (higher concentration stock solution prepared in DMSO) were added to each well in triplicate and incubated for 24 and 72 h at 37 °C in a humidified atmosphere (95% air and 5% CO2). The cell viability was then determined by measuring the absorbance of the formazan product at 490 nm using a microplate reader using a SpectraMax M2 microplate spectrophotometer, Molecular Devices, San Jose, CA, USA. The percentage of cell survival was calculated as [(OD value of cells treated with the test mixture of compounds) − (OD value of culture medium)]/[(OD value of control cells) − (OD value of culture medium)] × 100%. IC50 values of compounds were calculated using non-linear regression analysis in GraphPad Prism (Boston, MA, USA).

For assay [2], the system named is human breast tumor (MDA-MB-231) cell lines. Put plainly: MTS cell viability assay. The protocol: as §1, §2
On the technique in general: Tetrazolium assays rely on reduction of a dye to a coloured formazan, in cell work by metabolically active cells.

In assay [3] the test system is human leukemia carcinoma (CCRF-CEM) cell lines. In words: MTS cell viability assay. To be noted: Homo sapiens, CCRF-CEM. The protocol: as §1, §2
The subject of assay [4] is human ovarian adenocarcinoma (SKOV-3) cell lines. Put plainly: MTS cell viability assay. To be noted: SK-OV-3, conjugates at 25 μM, 72 h, read-out: Inhibition of Cancer Cell Lines SKOV-3. The protocol:
as §1, §2

Assay [5] deals with human prostate cancer (PC-3) cell lines. In words: MTS cell viability assay. The protocol: as §1, §2
Assay [6] relates to human renal carcinoma (iSLK) cell lines. Put plainly: MTS cell viability assay. To be noted: Homo sapiens; conjugates at 25 μM, 72 h; read-out: Inhibition of Cancer Cell Lines iSLK. The protocol: as §1, §2
Assay [7] has as its system human embryonic kidney (HEK-293) cell lines. In words: MTS cell viability assay, non-cancerous cells. To be noted: Homo sapiens.
Source text: (§3) The compounds were further screened for their in vitro cytotoxicity against non-cancerous normal cell lines, viz., human embryonic kidney (HEK-293) and normal pig kidney (LLCPK) cell lines. These cell lines were selected to determine whether the compounds had selectivity against cancerous cells in contrast to non-cancerous cells. The data obtained is shown in Figure 3a–b (cf. Supplementary Materials for the data obtained for intermediates and starting materials Figure S28.7–S28.8, page no. 77–78).
as §2

The subject of assay [8] is normal pig kidney (LLCPK) cell lines. Put plainly: MTS cell viability assay, non-cancerous cells. To be noted: Sus scrofa, conjugates at 25 μM, 72 h.
Source text: as §3, §2

For assay [9], the system named is panel of cancer cell lines (CCRF-CEM, SKOV-3, MDA-MB-231, PC-3, DU-145, iSLK). Put plainly: MTS cell viability assay, summary over the cancer cell line panel. To be noted: Homo sapiens. The protocol: as §1, §2
Setting [10] is: average of three independent tests in triplicate.

Broadly, the IC50 is the point on the concentration scale where inhibition reaches its midpoint. As a reminder, the inhibition is how much of the control response was suppressed. In the case of `Cc1noc(C)c1C(=O)OCc1coc2ccccc2c1=O` [Compound 5a, (4-Oxo-4H-1-benzopyran-3-yl)methyl 3,5-dimethylisoxazole-4-carboxylate], the 50% inhibitory concentration (IC50) was 15.3 µM in [1] (setting [10]); 5.6 µM in assay [2] (setting [10]); 11.6 µM in assay [3] (setting [10]); 17.8 µM in assay [5] (PC3, average of three independent tests in triplicate); 293 µM in [7] (HEK293, normal HEK-293 cells, average of three independent tests in triplicate); 5.6 to 17.8 µM in [9] (range over CCRF-CEM, MDA-MB-231, PC3, DU-145, read-out: IC50 against all the cancer cell lines (range)). The inhibition at 25 µM in assay [1] (conjugates at 25 μM, 72 h) came out at 73%; in [2] (conjugates at 25 μM, 72 h, read-out: Inhibition of Cancer Cell Lines MDA-MB-231), 78%; in assay [3] (conjugates at 25 μM, 72 h, read-out: Inhibition of Cancer Cell Lines CCRF-CEM) it was 81%; in [4], 69%; in [5] (conjugates at 25 μM, 72 h), 70%; in assay [6], 44%. Further, the inhibition at 25 µM is 37% in assay [7] (HEK293, conjugates at 25 μM, 72 h); 57% in assay [8]; 44 to 81% in assay [9] (25 μM, 72 h, range over six cancer cell lines, read-out: percentage of inhibition (range over the cancer cell lines)).

The values above are taken from article PMC10224329, “Design, Synthesis, and Antiproliferative Activity of Benzopyran-4-One-Isoxazole Hybrid Compounds” (Molecules, 2023).
